Experimental data from PubChem BioAssay (NCI).
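These data come from cells grown in 96-well plates and exposed to compound for 48 hours at five concentrations. GI50 = concentration required for 50% inhibition of growth. TGI: concentration producing complete growth inhibition.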

Legend:
Test in all cases: growth of human tumour cells (NCI), 48 h
786-0 renal = tested on: 786-0 renal
A549 NSCLC = tested on: A549 NSCLC
ACHN renal = tested on: ACHN renal
BT-549 breast = tested on: BT-549 breast
CAKI-1 renal = tested on: CAKI-1 renal
CCRF-CEM leukemia = tested on: CCRF-CEM leukemia
COLO 205 colon = tested on: COLO 205 colon
DU-145 prostate = tested on: DU-145 prostate
EKVX NSCLC = tested on: EKVX NSCLC
HCC-2998 colon = tested on: HCC-2998 colon
HCT-116 colon = tested on: HCT-116 colon
HCT-15 colon = tested on: HCT-15 colon
HL-60(TB) leukemia = tested on: HL-60(TB) leukemia
HOP-62 NSCLC = tested on: HOP-62 NSCLC
HOP-92 NSCLC = tested on: HOP-92 NSCLC
HS 578T breast = tested on: HS 578T breast
HT29 colon = tested on: HT29 colon
IGROV1 ovarian = tested on: IGROV1 ovarian
K-562 leukemia = tested on: K-562 leukemia
KM12 colon = tested on: KM12 colon
LOX IMVI melanoma = tested on: LOX IMVI melanoma
M14 melanoma = tested on: M14 melanoma
MCF7 breast = tested on: MCF7 breast
MDA-MB-231 breast = tested on: MDA-MB-231 breast
MOLT-4 leukemia = tested on: MOLT-4 leukemia
NCI-H226 lung = tested on: NCI-H226 lung
NCI-H23 lung = tested on: NCI-H23 lung
NCI-H460 lung = tested on: NCI-H460 lung
NCI-H522 lung = tested on: NCI-H522 lung
NCI/ADR-RES ovarian = tested on: NCI/ADR-RES ovarian
OVCAR-4 ovarian = tested on: OVCAR-4 ovarian
OVCAR-5 ovarian = tested on: OVCAR-5 ovarian
OVCAR-8 ovarian = tested on: OVCAR-8 ovarian
PC-3 prostate = tested on: PC-3 prostate
RPMI-8226 leukemia = tested on: RPMI-8226 leukemia
SF-268 CNS = tested on: SF-268 CNS
SF-295 CNS = tested on: SF-295 CNS
SF-539 CNS = tested on: SF-539 CNS
SK-MEL-2 melanoma = tested on: SK-MEL-2 melanoma
SK-MEL-28 melanoma = tested on: SK-MEL-28 melanoma
SK-MEL-5 melanoma = tested on: SK-MEL-5 melanoma
SK-OV-3 ovarian = tested on: SK-OV-3 ovarian
SN12C renal = tested on: SN12C renal
SNB-19 CNS = tested on: SNB-19 CNS
SNB-75 CNS = tested on: SNB-75 CNS
SR leukemia = tested on: SR leukemia
SW-620 colon = tested on: SW-620 colon
T-47D breast = tested on: T-47D breast
TK-10 renal = tested on: TK-10 renal
U251 CNS = tested on: U251 CNS
UACC-257 melanoma = tested on: UACC-257 melanoma
UACC-62 melanoma = tested on: UACC-62 melanoma
UO-31 renal = tested on: UO-31 renal

## COc1ccc(-c2cnc(-c3ccncc3-c3cccc(OC)c3)o2)cc1
786-0 renal
  GI50: 62.7 nM
  TGI: 15000 nM
A549 NSCLC
  GI50: 40.9 nM
  TGI: 11300 nM
ACHN renal
  GI50: 138 nM
  TGI: 14700 nM
BT-549 breast
  GI50: 154 nM
  TGI: 13900 nM
CAKI-1 renal
  GI50: 866 nM
  TGI: 33000 nM
CCRF-CEM leukemia
  GI50: 38.9 nM
  TGI: 16000 nM
COLO 205 colon
  GI50: 37.5 nM
  TGI: 1230 nM
DU-145 prostate
  GI50: 40.8 nM
  TGI: 12900 nM
EKVX NSCLC
  GI50: 1040 nM
  TGI: 25100 nM
HCC-2998 colon
  GI50: 79.9 nM
  TGI: 14300 nM
HCT-116 colon
  GI50: 37.5 nM
  TGI: 11800 nM
HCT-15 colon
  GI50: 47.3 nM
  TGI: 14500 nM
HL-60(TB) leukemia
  GI50: 24 nM
  TGI: 96.8 nM
HOP-62 NSCLC
  GI50: 53.1 nM
  TGI: 23800 nM
HOP-92 NSCLC
  GI50: 403 nM
  TGI: 20200 nM
HS 578T breast
  GI50: 35.4 nM
  TGI: 20200 nM
HT29 colon
  GI50: 33 nM
  TGI: 10300 nM
IGROV1 ovarian
  GI50: 75.4 nM
  TGI: 18400 nM
K-562 leukemia
  GI50: 28.8 nM
  TGI: 12800 nM
KM12 colon
  GI50: 47.1 nM
  TGI: 1820 nM
LOX IMVI melanoma
  GI50: 59.9 nM
  TGI: 15500 nM
M14 melanoma
  GI50: 30.4 nM
  TGI: 14200 nM
MCF7 breast
  GI50: 113 nM
  TGI: 12200 nM
MDA-MB-231 breast
  GI50: 59.1 nM
  TGI: 19300 nM
MOLT-4 leukemia
  GI50: 61.7 nM
  TGI: 17200 nM
NCI-H226 lung
  GI50: 153 nM
  TGI: 15600 nM
NCI-H23 lung
  GI50: 38.3 nM
  TGI: 13000 nM
NCI-H460 lung
  GI50: 36.5 nM
  TGI: 4030 nM
NCI-H522 lung
  GI50: 19 nM
  TGI: 61.5 nM
NCI/ADR-RES ovarian
  GI50: 26.5 nM
  TGI: 30100 nM
OVCAR-4 ovarian
  GI50: 677 nM
  TGI: 29200 nM
OVCAR-5 ovarian
  GI50: 80.9 nM
  TGI: 23500 nM
OVCAR-8 ovarian
  GI50: 48.4 nM
  TGI: 15300 nM
PC-3 prostate
  GI50: 37.9 nM
  TGI: 16900 nM
RPMI-8226 leukemia
  GI50: 38.7 nM
  TGI: 5750 nM
SF-268 CNS
  GI50: 78.3 nM
  TGI: 16900 nM
SF-295 CNS
  GI50: 29.4 nM
  TGI: 13800 nM
SF-539 CNS
  GI50: 26.8 nM
  TGI: 77.6 nM
SK-MEL-2 melanoma
  GI50: 39.7 nM
  TGI: 15200 nM
SK-MEL-28 melanoma
  GI50: 63.9 nM
  TGI: 17800 nM
SK-MEL-5 melanoma
  GI50: 37.9 nM
  TGI: 226 nM
SK-OV-3 ovarian
  GI50: 42.4 nM
  TGI: 17100 nM
SN12C renal
  GI50: 79.8 nM
  TGI: 16000 nM
SNB-19 CNS
  GI50: 45.1 nM
  TGI: 19500 nM
SNB-75 CNS
  GI50: 32.9 nM
  TGI: 23200 nM
SR leukemia
  GI50: < 15.2 nM
  TGI: 13500 nM
SW-620 colon
  GI50: 38.3 nM
  TGI: 19300 nM
T-47D breast
  GI50: 2580 nM
  TGI: 35100 nM
TK-10 renal
  GI50: 11700 nM
  TGI: 42100 nM
U251 CNS
  GI50: 38.7 nM
  TGI: 13400 nM
UACC-257 melanoma
  GI50: 403 nM
  TGI: 15800 nM
UACC-62 melanoma
  GI50: 50.8 nM
  TGI: 15500 nM
UO-31 renal
  GI50: 89.6 nM
  TGI: 14200 nM
